Experiment [1] addresses T1, Hsp90β (Homo sapiens (Human), UniProt P08238). Briefly: fluorescence polarization (FP) assay, competitive displacement of FITC labeled Geldanamycin. In kind it is binding. As to the method:
(§1) Once prepared, the compounds were evaluated for their binding affinities against the cytosolic isoforms, Hsp90α and Hsp90β by measuring their ability to competitively displace FITC labeled Geldanamycin (GDA) in a fluorescence polarization assay (apparent Kd's listed in Table 1). […] The alkyne (4k) was investigated to determine whether a linear substituent could project into the subpocket and affect selectivity.

Another experiment deals with Hsp90α (Homo sapiens (Human), UniProt P07900). The description is as above. In kind it is binding. As to the method:
as §1

The target of experiment [2] is T1, Hsp90β. The conditions noted are these: previously reported inhibitors; cited from earlier work.
Where [3] appears, read: apparent Kd, FP assay, read-out: Hsp90β Kd.
[4] abbreviates: apparent Kd, FP assay, read-out: Hsp90α Kd.

Where two headings read alike, the source gives them in different places.

T1 sequence (P08238 whole entry, canonical isoform): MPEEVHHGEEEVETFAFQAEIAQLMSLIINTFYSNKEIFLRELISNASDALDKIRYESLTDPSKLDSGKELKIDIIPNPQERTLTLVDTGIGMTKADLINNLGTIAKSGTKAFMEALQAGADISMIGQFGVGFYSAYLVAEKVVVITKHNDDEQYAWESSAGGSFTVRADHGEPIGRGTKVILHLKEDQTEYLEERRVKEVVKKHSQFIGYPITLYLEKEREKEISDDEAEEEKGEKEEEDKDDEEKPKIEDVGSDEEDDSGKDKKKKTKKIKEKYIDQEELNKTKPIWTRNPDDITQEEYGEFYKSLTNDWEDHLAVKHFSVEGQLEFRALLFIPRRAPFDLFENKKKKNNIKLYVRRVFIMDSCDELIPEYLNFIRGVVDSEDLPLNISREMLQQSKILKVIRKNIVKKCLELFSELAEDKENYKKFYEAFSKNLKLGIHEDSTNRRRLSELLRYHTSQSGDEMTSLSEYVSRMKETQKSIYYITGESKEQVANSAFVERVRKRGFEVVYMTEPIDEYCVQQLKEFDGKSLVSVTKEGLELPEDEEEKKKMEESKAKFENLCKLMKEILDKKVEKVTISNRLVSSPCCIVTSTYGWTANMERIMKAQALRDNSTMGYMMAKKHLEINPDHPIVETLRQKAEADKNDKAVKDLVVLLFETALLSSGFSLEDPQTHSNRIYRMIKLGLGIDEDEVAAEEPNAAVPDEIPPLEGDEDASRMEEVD

Regarding `Cc1cc2cc(-n3nc(C)c4c3CC(C)(C)CC4=O)cc(N[C@H]3CC[C@H](O)CC3)c2c(=O)[nH]1` [Compound 4a, 8-(((1r,4r)-4-hydroxycyclohexyl)amino)-3-methyl-6-(3,6,6-trimethyl-4-oxo-4,5,6,7-tetrahydro-1H-indazol-1-yl)isoquinolin-1(2H)-one], on Hsp90β [1], the “selectivity for Hsp90β over Hsp90α” value is reported as 3 fold. Moreover, the Kd at Hsp90β [1] (setting [3]) was determined as 0.101 ± 0.003 µM; on Hsp90α (setting [4]), 0.294 ± 0.023 µM.
For `CCc1cc2cc(-n3nc(C)c4c3CC(C)(C)CC4=O)cc(N[C@H]3CC[C@H](O)CC3)c2c(=O)[nH]1` [Compound 4b, 3-ethyl-8-(((1r,4r)-4-hydroxycyclohexyl)amino)-6-(3,6,6-trimethyl-4-oxo-4,5,6,7-tetrahydro-1H-indazol-1-yl)isoquinolin-1(2H)-one], the Kd at Hsp90β [1] (setting [3]) amounted to 0.068 ± 0.008 µM; at Hsp90α (setting [4]), 0.18 ± 0.036 µM.
For `Cc1nn(-c2cc(N[C@H]3CC[C@H](O)CC3)c3c(=O)[nH]c(C(C)C)cc3c2)c2c1C(=O)CC(C)(C)C2` [Compound 4c, 8-(((1r,4r)-4-hydroxycyclohexyl)amino)-3-isopropyl-6-(3,6,6-trimethyl-4-oxo-4,5,6,7-tetrahydro-1H-indazol-1-yl)isoquinolin-1(2H)-one], in that order: 0.051 ± 0.008 µM and 0.173 ± 0.036 µM.
As for `CCCCc1cc2cc(-n3nc(C)c4c3CC(C)(C)CC4=O)cc(N[C@H]3CC[C@H](O)CC3)c2c(=O)[nH]1` [Compound 4e, 3-butyl-8-(((1r,4r)-4-hydroxycyclohexyl)amino)-6-(3,6,6-trimethyl-4-oxo-4,5,6,7-tetrahydro-1H-indazol-1-yl)isoquinolin-1(2H)-one], the Kd on Hsp90β [1] was 0.186 µM; on Hsp90β [1] (setting [3]), 0.156 ± 0.018 µM; on Hsp90α (setting [4]), greater than 50 µM. On Hsp90β [1], the “selectivity for Hsp90β over Hsp90α” value is reported as greater than 300 fold. The “affinity for Hsp90β (in words)” value at Hsp90β [1] (FP assay) is given as “did not bind”. In addition, the “binding to Hsp90α (in words)” value on Hsp90α (FP assay) is “did not bind”.
For `Cc1nn(-c2cc(N[C@H]3CC[C@H](O)CC3)c3c(=O)[nH]c(C(C)(C)C)cc3c2)c2c1C(=O)CC(C)(C)C2` [Compound 4f, 3-(tert-butyl)-8-(((1r,4r)-4-hydroxycyclohexyl)amino)-6-(3,6,6-trimethyl-4-oxo-4,5,6,7-tetrahydro-1H-indazol-1-yl)isoquinolin-1(2H)-one], the Kd on Hsp90β [1] (setting [3]) and on Hsp90α (setting [4]) was greater than 50 µM throughout.
On to `Cc1nn(-c2cc(N[C@H]3CC[C@H](O)CC3)c3c(=O)[nH]c(CC(C)C)cc3c2)c2c1C(=O)CC(C)(C)C2` [Compound 4g, 8-(((1r,4r)-4-hydroxycyclohexyl)amino)-3-isobutyl-6-(3,6,6-trimethyl-4-oxo-4,5,6,7-tetrahydro-1H-indazol-1-yl)isoquinolin-1(2H)-one], for which, on Hsp90β [1] (FP assay), the “affinity for Hsp90β (in words)” value is “decrease in affinity”. The “selectivity for Hsp90β over Hsp90α (in words)” value (“selectivity … (in words)” for short) on Hsp90β [1] (FP assay) was “maintained selectivity”. The Kd was 0.264 ± 0.03 µM at Hsp90β [1] (setting [3]) and greater than 50 µM on Hsp90α (setting [4]).
For the molecule `Cc1nn(-c2cc(N[C@H]3CC[C@H](O)CC3)c3c(=O)[nH]c(C4CC4)cc3c2)c2c1C(=O)CC(C)(C)C2` [Compound 4h, 3-cyclopropyl-8-(((1r,4r)-4-hydroxycyclohexyl)amino)-6-(3,6,6-trimethyl-4-oxo-4,5,6,7-tetrahydro-1H-indazol-1-yl)isoquinolin-1(2H)-one], the “affinity for Hsp90β (in words)” value at Hsp90β [1] (FP assay) was “loss of potency”. Besides, the Kd on Hsp90β [1] (setting [3]) was 0.946 ± 0.038 µM; on Hsp90α (setting [4]), 1.88 ± 0.28 µM.
For the molecule `COCc1cc2cc(-n3nc(C)c4c3CC(C)(C)CC4=O)cc(N[C@H]3CC[C@H](O)CC3)c2c(=O)[nH]1` [Compound 4i, 8-(((1r,4r)-4-hydroxycyclohexyl)amino)-3-(methoxymethyl)-6-(3,6,6-trimethyl-4-oxo-4,5,6,7-tetrahydro-1H-indazol-1-yl)isoquinolin-1(2H)-one], at Hsp90β [1] (FP assay), the “selectivity … (in words)” value is given as “loss of selectivity”. Besides, the Kd was found to be 0.159 ± 0.003 µM on Hsp90β [1] (setting [3]) and 0.306 ± 0.023 µM at Hsp90α (setting [4]).
For `Cc1nn(-c2cc(N[C@H]3CC[C@H](O)CC3)c3c(=O)[nH]c(CO)cc3c2)c2c1C(=O)CC(C)(C)C2` [Compound 4j, 8-(((1r,4r)-4-hydroxycyclohexyl)amino)-3-(hydroxymethyl)-6-(3,6,6-trimethyl-4-oxo-4,5,6,7-tetrahydro-1H-indazol-1-yl)isoquinolin-1(2H)-one], in that order: “loss of selectivity”, 0.233 ± 0.018 µM and 0.824 ± 0.104 µM.
With `C#Cc1cc2cc(-n3nc(C)c4c3CC(C)(C)CC4=O)cc(N[C@H]3CC[C@H](O)CC3)c2c(=O)[nH]1` [Compound 4k, 3-ethynyl-8-(((1r,4r)-4-hydroxycyclohexyl)amino)-6-(3,6,6-trimethyl-4-oxo-4,5,6,7-tetrahydro-1H-indazol-1-yl)isoquinolin-1(2H)-one], the “selectivity … (in words)” value on Hsp90β [1] (FP assay) was “without discrimination”. Besides, the values for the Kd on Hsp90β [1] (setting [3]) and on Hsp90α (setting [4]) were 0.337 ± 0.015 µM and 0.381 ± 0.003 µM, respectively.
For the molecule `CCCc1cc2cc(-n3nc(C)c4c3CC(C)(C)CC4=O)cc(N3CCOCC3)c2c(=O)[nH]1` [Compound 5a, 8-morpholino-3-propyl-6-(3,6,6-trimethyl-4-oxo-4,5,6,7-tetrahydro-1H-indazol-1-yl)isoquinolin-1(2H)-one], at Hsp90β [1] (FP assay), the “selectivity … (in words)” value is recorded as “excellent selectivity”. For the same molecule, the Kd at Hsp90β [1] (setting [3]) was 0.121 ± 0.017 µM; on Hsp90β [1] (read-out: Kd for Hsp90β), roughly 0.121 µM; at Hsp90α (setting [4]), greater than 50 µM.
On to `CCCc1cc2cc(-n3nc(C)c4c3CC(C)(C)CC4=O)cc(N3CCN(C)CC3)c2c(=O)[nH]1` [Compound 5c, 8-(4-methylpiperazin-1-yl)-3-propyl-6-(3,6,6-trimethyl-4-oxo-4,5,6,7-tetrahydro-1Hindazol-1-yl)isoquinolin-1(2H)-one], for which, on Hsp90β [1] (FP assay), the “affinity for Hsp90β (in words)” value is recorded as “decrease in affinity”. Besides, the “selectivity … (in words)” value on Hsp90β [1] (FP assay) was “decrease in affinity and selectivity”. The Kd at Hsp90β [1] (setting [3]) turned out to be 0.426 ± 0.053 µM; at Hsp90α (setting [4]), 8.52 ± 0.24 µM.
As for `CCCc1cc2cc(-n3nc(C)c4c3CC(C)(C)CC4=O)cc(N3CCNCC3)c2c(=O)[nH]1` [Compound 5d, 8-(piperazin-1-yl)-3-propyl-6-(3,6,6-trimethyl-4-oxo-4,5,6,7-tetrahydro-1H-indazol-1-yl)isoquinolin-1(2H)-one], the results for the Kd on Hsp90β [1] (setting [3]) and on Hsp90α (setting [4]) were 4.47 ± 0.278 µM and greater than 50 µM, respectively.
As for `CCCc1cc2cc(-n3nc(C)c4c3CC(C)(C)CC4=O)cc(N3CCN(C(=O)OC(C)(C)C)CC3)c2c(=O)[nH]1` [Compound 5e, tert-butyl 4-(1-oxo-3-propyl-6-(3,6,6-trimethyl-4-oxo-4,5,6,7-tetrahydro-1H-indazol-1-yl)-1,2-dihydroisoquinolin-8-yl)piperazine-1-carboxylate], the Kd on Hsp90β [1] was 0.463 ± 0.031 µM; at Hsp90α it was greater than 50 µM.
Turning to `CCCc1cc2cc(-n3nc(C)c4c3CC(C)(C)CC4=O)cc(NC3CCN(C)CC3)c2c(=O)[nH]1` [Compound 5f, 8-((1-methylpiperidin-4-yl)amino)-3-propyl-6-(3,6,6-trimethyl-4-oxo-4,5,6,7-tetrahydro-1Hindazol-1-yl)isoquinolin-1(2H)-one], the values for the Kd on Hsp90β [1] (setting [3]) and at Hsp90α (setting [4]) were 0.513 ± 0.067 µM and 17.1 ± 0.66 µM, respectively.
In the case of `CCCc1cc2cc(-n3nc(C)c4c3CC(C)(C)CC4=O)cc(N(C)CCN(CC)CC)c2c(=O)[nH]1` [Compound 5g, 8-((2-(diethylamino)ethyl)(methyl)amino)-3-propyl-6-(3,6,6-trimethyl-4-oxo-4,5,6,7-tetrahydro-1H-indazol-1-yl)isoquinolin-1(2H)-one], the Kd on Hsp90β [1] (setting [3]) is 4.46 ± 0.188 µM; on Hsp90α (setting [4]), greater than 50 µM.
In the case of `CCCC1Cc2cc(-n3nc(C)c4c3CC(C)(C)CC4=O)cc(N3CCC(O)CC3)c2C(=O)N1` (centres unmarked) [Compound 6b, 8-(4-hydroxypiperidin-1-yl)-3-propyl-6-(3,6,6-trimethyl-4-oxo-4,5,6,7-tetrahydro-1Hindazol-1-yl)-3,4-dihydroisoquinolin-1(2H)-one], at Hsp90β [1] (FP assay), the “affinity for Hsp90β (in words)” value is “lost both selectivity and affinity”; the “selectivity … (in words)” value was “lost both selectivity and affinity”.
On to `CC1(C)CC(=O)c2c(C(F)(F)F)nn(-c3ccc(C(N)=O)c(N[C@H]4CC[C@H](O)CC4)c3)c2C1` [SNX 2112], for which the “Hsp90α/Hsp90β isoform profile (in words)” value at Hsp90β [2] is listed as “equipotent affinity”.
